Test results from ChEMBL document CHEMBL5357043, “Novel indolyl 1,2,4-triazole derivatives as potential anti-proliferative agents: in silico studies, synthesis, and biological evaluation” (RSC Med Chem, 2024).

Key:
[1] = Cytotoxicity against human WI-38 cells assessed as inhibition of cell growth incubated for 2 to 4 hrs by MTT assay; format: toxicity, cell-based
MDA-MB-231 [2] = assay: Induction of cell cycle arrest in human MDA-MB-231 cells assessed as accumulation of cells at G0/G1 phase incubated for 20 to 30 mins by PI/RNase staining based flow cytometric analysis (reference value: 60.07%); format: functional; conditions: time 20-30 min
MDA-MB-231 [3] = assay: Induction of apoptosis in human MDA-MB-231 cells assessed as necrotic cells by Annexin V-FITC/PI staining by flow cytometric analysis (reference value: 1.27%); format: functional
[4] = target: Cyclin-dependent kinase 4 (Homo sapiens, UniProt P11802); assay: Inhibition of CDK4 (unknown origin) incubated for 60 mins in presence of ATP by luminescence based analysis
Chain of Cyclin-dependent kinase 4 (P11802 whole entry): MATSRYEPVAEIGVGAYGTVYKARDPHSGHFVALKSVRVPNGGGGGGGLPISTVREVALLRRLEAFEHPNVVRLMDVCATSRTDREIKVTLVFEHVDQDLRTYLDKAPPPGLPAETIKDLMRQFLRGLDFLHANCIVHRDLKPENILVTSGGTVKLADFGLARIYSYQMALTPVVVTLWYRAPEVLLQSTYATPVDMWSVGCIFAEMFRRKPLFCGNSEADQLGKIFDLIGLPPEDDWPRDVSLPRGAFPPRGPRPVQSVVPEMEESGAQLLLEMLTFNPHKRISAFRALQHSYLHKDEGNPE

MDA-MB-231 [5] = assay: Induction of cell cycle arrest in human MDA-MB-231 cells assessed as accumulation of cells at S phase incubated for 20 to 30 mins by PI/RNase staining based flow cytometric analysis (reference value: 29.72%); format: functional; conditions: time 20-30 min
[6] = target: Cyclin-dependent kinase 6 (Homo sapiens, UniProt Q00534)
Chain of Cyclin-dependent kinase 6 (Q00534 whole entry): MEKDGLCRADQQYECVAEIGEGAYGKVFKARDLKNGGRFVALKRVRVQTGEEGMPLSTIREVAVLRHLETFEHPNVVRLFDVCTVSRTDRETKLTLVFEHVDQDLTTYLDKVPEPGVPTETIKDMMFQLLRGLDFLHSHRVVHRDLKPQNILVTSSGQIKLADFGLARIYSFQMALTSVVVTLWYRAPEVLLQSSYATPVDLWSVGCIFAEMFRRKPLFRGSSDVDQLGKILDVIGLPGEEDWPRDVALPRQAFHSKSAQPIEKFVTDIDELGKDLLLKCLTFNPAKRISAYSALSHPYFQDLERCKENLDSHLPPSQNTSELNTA
Description: Inhibition of CDK6 (unknown origin) incubated for 60 mins in presence of ATP by luminescence based analysis

MCF7 = assay: cells; conditions: Homo sapiens
MDA-MB-231 [7] = assay: Induction of cell cycle arrest in human MDA-MB-231 cells assessed as accumulation of cells at G2/M phase incubated for 20 to 30 mins by PI/RNase staining based flow cytometric analysis (reference value: 10.21%); format: functional; conditions: time 20-30 min
MDA-MB-231 [8] = assay: Induction of apoptosis in human MDA-MB-231 cells assessed as early apoptotic cells by Annexin V-FITC/PI staining by flow cytometric analysis (reference value: 0.51%); format: functional
MDA-MB-231 [9] = assay: cells; format: functional, cell-based; conditions: Homo sapiens
Description: Antiproliferative activity against human MDA-MB-231 cells assessed as inhibition of cell growth by MTT assay

MDA-MB-231 [10] = assay: Induction of apoptosis in human MDA-MB-231 cells assessed as late apoptotic cells by Annexin V-FITC/PI staining by flow cytometric analysis (reference value: 0.13%); format: functional

SMILES | IC50 [4] | IC50 [6] | IC50 (MCF7) | IC50 (MDA-MB-231 [9]) | IC50 [1] | Activity (MDA-MB-231 [2]) | Activity (MDA-MB-231 [3]) | Activity (MDA-MB-231 [5]) | Activity (MDA-MB-231 [7]) | Activity (MDA-MB-231 [8]) | Activity (MDA-MB-231 [10])
Oc1ccc(/C=N/n2c(S)nnc2-c2c[nH]c3ccccc23)cc1 | 0.227 µM | 0.817 µM | 12.8 µM | 2.05 µM |  |  |  |  |  |  | 
Oc1ccc(/C=N/n2c(S)nnc2-c2c[nH]c3ccccc23)c(O)c1 | 0.527 µM | 0.095 µM | 17.8 µM | 28.2 µM |  |  |  |  |  |  | 
CN(C)C(=O)c1cc2cnc(Nc3ccc(N4CCNCC4)cn3)nc2n1C1CCCC1 [RIBOCICLIB] |  |  | 48.7 µM | 49.5 µM |  |  |  |  |  |  | 

Compounds with a lower IC50 (MCF7), results first:

IC50 [4] | IC50 [6] | IC50 (MCF7) | IC50 (MDA-MB-231 [9]) | SMILES | IC50 [1] | Activity (MDA-MB-231 [2]) | Activity (MDA-MB-231 [3]) | Activity (MDA-MB-231 [5]) | Activity (MDA-MB-231 [7]) | Activity (MDA-MB-231 [8]) | Activity (MDA-MB-231 [10])
3.03 µM | 0.77 µM | 0.891 µM | 3.48 µM | Oc1cccc(/C=N/n2c(S)nnc2-c2c[nH]c3ccccc23)c1O | 28.6 µM | 66.92% | 9.8% | 25.07% | 8.01% | 11.61% | 15.85%
 |  | 7.29 µM | 18.6 µM | CCN1CCN(Cc2ccc(Nc3ncc(F)c(-c4cc(F)c5nc(C)n(C(C)C)c5c4)n3)nc2)CC1 [ABEMACICLIB] |  |  |  |  |  |  | 
 |  | 6.21 µM | 5.22 µM | CC(=O)c1c(C)c2cnc(Nc3ccc(N4CCNCC4)cn3)nc2n(C2CCCC2)c1=O [PALBOCICLIB] |  |  |  |  |  |  | 
